# Data taken from ChEMBL document CHEMBL1154198, “Chemical genetics of Plasmodium falciparum” (Nature, 2010).
# What was measured:
# Plasmodium falciparum [1] = assay: ST_JUDE: Plasmodium falciparum K1 EC50 (uM) as measured by SYBR green dye; type: functional, organism-based
# Plasmodium falciparum [2] = assay: ST_JUDE: Plasmodium falciparum 3D7 EC50 (uM) as measured by SYBR green dye; type: functional, organism-based
Compound,EC50 (Plasmodium falciparum [1]) [µM],EC50 (Plasmodium falciparum [2]) [µM]
CCN(CC)CCNC(=O)c1ccc(Cn2c(SCc3ccccc3C)nc3ccncc32)cc1,> 15,6.74
O=[N+]([O-])c1ccc(O)c(/N=C/C=C(\O)c2ccc(Cl)c(Cl)c2)c1,1.65,> 15
CCN(CC)c1ccc(/C=C/C(=O)NCCN2CCC(N(C)C3CCCCC3C)CC2)cc1 (stereo unspecified),> 15,2.29
COc1ccc(-c2nn(C)c3sc(C(=O)Nc4cccc(SC)c4)cc23)cc1OC,5.24,> 15
CCN1CCN(c2cc(C)c3cc(NC(=S)N4CCC(N5CCCCC5)CC4)ccc3n2)CC1,7.89,5.91
CSc1cccc(NC(=O)C2c3ccccc3C(=O)N(CC(C)C)C2c2cccs2)c1 (stereo unspecified),0.2,0.13
CCOc1ccccc1N1CCN(Cc2cc(Br)cc(Br)c2O)CC1,3.78,8.24
CCN(CC)c1cc(C)c2cc(NC(=O)c3ccc(OC)c(OC)c3)ccc2n1,> 15,2.29
CC(C)(C)c1ccc2c(c1)CN(Cc1ccc(Cl)cc1)CO2,0.0389,0.255
CCOc1ccc(Nc2cc(C)nc3ccc(OCC)cc23)cc1,3.48,1.1
CC(=O)NC(c1ccc(C(C)C)cc1)c1ccc2cccnc2c1O (stereo unspecified),6.76,6.6
CC(C)C[C@@H](CO)Nc1c2ccccc2nc2ccccc12,4.3,2.85
COc1ccc2nc(N(Cc3cccnc3)C(=O)c3cccc(Cl)c3)sc2c1,> 15,> 15
Oc1c(C(Nc2ccccn2)c2ccccc2Br)cc(Cl)c2cccnc12 (stereo unspecified),> 15,2.13
COc1ccc2sc(N(Cc3cccnc3)C(=O)c3ccc(Cl)cc3)nc2c1,> 15,> 15
COCC(C)Oc1cccc(CN(Cc2ccncc2)C(=O)/C=C/c2cccc(F)c2)c1 (stereo unspecified),> 15,4.14
CC1Cc2nc(SCC(=O)Nc3cccc(F)c3)n(C)c(=O)c2S1 (stereo unspecified),2.07,1.62
CCCCn1c(=N)n(CC(O)c2ccc(Cl)cc2)c2ccccc21 (stereo unspecified),0.544,0.574
COc1ccc2nc(C)cc(Nc3ccc(N4CCOCC4)cc3)c2c1,> 15,4.69
Oc1c(CN2CCN(c3ccccc3F)CC2)cc(Br)c2cccnc12,3.44,3.76
CO/C(O)=C1\C(C)=NC2=C(C(=O)CC(c3ccccc3OC)C2)C1c1cccs1 (stereo unspecified),1.72,3.91
Cc1ccc(S(=O)(=O)Oc2ccc(/C=N/N=C(N)N)cc2)cc1,> 15,1.18

Compound,EC50 (Plasmodium falciparum [1]) [µM],EC50 (Plasmodium falciparum [2]) [µM]
Fc1ccc(-c2nc3ncccn3c2Nc2cccc(C(F)(F)F)c2)cc1,1.22,0.921
Cc1cccc(/C=C2/Sc3ccc(C(=O)NCCN4CCN(c5cc(Cl)ccc5C)CC4)cc3N(C)C2=O)c1,0.965,0.985
O=C1C(Nc2cccc(Br)c2)=C(N2CCCCC2)C(=O)c2ccccc21,1.15,0.456
CCOc1ccc(Nc2c3ccccc3nc3ccccc23)cc1,1.91,5.72
Cc1ccc(Oc2nc(-c3ccncc3)nc3ccccc23)cc1,2.26,3.48
CCOc1ccc2c(c1)C(=NNC(=N)N)c1cc(OCC)ccc1-2,6.96,0.398
COc1cc(Br)c(C2C(C#N)=C(N)Oc3cc(O)ccc32)cc1OC (stereo unspecified),5.8,> 15
Cc1ccc2c(c1)c1c(n2CC(O)Cn2cnc(-c3ccccc3)c2-c2ccccc2)CCCC1 (stereo unspecified),1.08,2.02
COc1ccc2sc(N(Cc3cccnc3)C(=O)c3ccc(C#N)cc3)nc2c1,> 15,> 15
CC1CCCCN1CCCNC(=O)c1ccc2c(c1)sc1nc(-c3ccc(F)cc3)cn12 (stereo unspecified),1.59,0.634
COC(=O)Oc1ccc2c(=O)c(Oc3ccc4ccccc4c3)c(C(F)(F)F)oc2c1,> 15,> 15
Clc1cccc(C2Nc3ccccc3-c3nc4ccccc4n32)c1 (stereo unspecified),4.63,> 15
CCCc1cc(O)nc(-n2nc(C)cc2NC(=O)c2ccc(Cl)cc2)n1,> 15,> 15
CCC(=O)N1c2ccc(S(=O)(=O)CCC(=O)Nc3ccc(Br)c(C)c3)cc2CC1C (stereo unspecified),> 15,> 15
Cc1cccc(C(=O)NCc2nnc(S)n2-c2cccc(C(F)(F)F)c2)c1,> 15,> 15
C=CCn1c(SCC(=O)Nc2ccccc2OC)nc2sc(C)cc2c1=O,4.01,0.722
CCOc1cccc(CN2CCCC(C(=O)c3cccc(C(F)(F)F)c3)C2)c1O (stereo unspecified),1.09,3.34
CCCCOc1ccc(S(=O)(=O)Nc2ccc(Nc3nc(C)cc(N4CCCC4)n3)cc2)cc1,> 15,1.41
CCOc1ccc(S(=O)(=O)NC2=C/C(=N\c3ccc(O)cc3)C(=O)c3ccccc32)cc1,1.03,1.25
CC(=O)N(C1=C(N(C)C)C(=O)c2ccccc2C1=O)c1ccc(C(=O)O)cc1,1.9,1.3
Cn1c(-c2ccccc2[N+](=O)[O-])[n+](C)c2ccccc21,> 15,7.38
